In US20140303144A1, “COMPOUNDS AND METHODS OF TREATING HYPERTENSION” (Medivation Technologies, Inc., priority 2011, published 2014):

Tests used:
[1] = system: SH-SY5Y cells; test: Cell viability assay (MTS reduction) against 4-Br-A23187 challenge; assay type: cell-based; conditions: Homo sapiens, SH-SY5Y, compound 10 nM, 4-Br-A23187 (2 μM) for 24 h, Control = 100, Vehicle = 0, read-out: Relative Cytoprotective capacity
Procedure: SH-SY5Y cells cultured in DMEM/F12 media supplemented with 10% FBS were seeded in 96-well microplates at 150,000 cells/cm^2. After 24 h, cells were depleted from FBS and kept in culture for 24 h before the experiment. A stock solution was prepared by dissolving the calcium ionophore 4-Br-A23187 (Calbiochem Cat. N^o 100107) in DMSO at 25 mM. Cells were then treated with 4-Br-A23187 (2 μM), hydrogen peroxide (300 μM) or the mitochondrial toxin rotenone (25 μM) in the presence of vehicle or Compound of the Invention for 24 h. Cell death was determined by measurements of LDH release according to the Cytotoxicity Detection KitPlus (Roche, Mannheim, Germany). Cell viability was determined by measuring the capacity of cells to metabolize MTS tetrazolium (MTS) according to the Cytotoxicity Detection KitPlus (Roche, Mannheim, Germany) and MTS reduction was assessed by the CellTiter 96® AQueous One Solution Cell Proliferation assay (Promega Corporation, Madison, Wis., USA). Compounds were screened at 10 nM, using DMSO as vehicle. Assay results for the experiments with Br-A23187 were presented as the MTS reduction capacity (cell viability) of untreated cells (control), 4-Br-A23187-treated cells (vehicle), and co-incubation of Br-A23187 with Compounds of the Invention treated cells and using […] (FCCP) at 10 μM for 30 min as a control. This assay assesses the ability of the test compounds to protect against cell death that was mediated by mitochondrial dysfunction. In the assay, the calcium ionophore 4-Br-A23187 was used to challenge the cells, causing calcium levels to rise in mitochondria, which leads to depolarization and cell death. Test compounds were assessed for their ability to prevent cell death in response to challenge with 4-Br-A23187.

[2] = molecular target: T1, human recombinant adrenergic α2A receptor (Homo sapiens, UniProt P08913); test: Adrenergic α2A radioligand binding assay ([3H]MK-912); conditions: read-out: Percentage inhibition of ligand binding, Adrenergic α2A; for inhibition at 0.1 µM: 0.1 μM compound
T1 construct: expressed in transfected cells; host or cells: insect Sf9 cells
T1 sequence (P08913 1-465): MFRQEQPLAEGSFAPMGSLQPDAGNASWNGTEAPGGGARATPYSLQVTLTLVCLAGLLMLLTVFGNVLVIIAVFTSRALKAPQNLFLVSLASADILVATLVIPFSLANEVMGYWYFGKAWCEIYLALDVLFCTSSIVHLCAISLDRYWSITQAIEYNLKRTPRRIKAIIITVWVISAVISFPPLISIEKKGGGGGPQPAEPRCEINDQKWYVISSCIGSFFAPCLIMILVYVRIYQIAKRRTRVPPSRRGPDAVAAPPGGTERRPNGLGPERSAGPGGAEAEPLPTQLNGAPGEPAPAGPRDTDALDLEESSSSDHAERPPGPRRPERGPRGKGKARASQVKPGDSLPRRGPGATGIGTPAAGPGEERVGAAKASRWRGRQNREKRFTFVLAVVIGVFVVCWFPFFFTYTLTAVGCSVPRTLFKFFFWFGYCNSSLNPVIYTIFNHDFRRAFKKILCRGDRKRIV
Procedure: To evaluate in radioligand binding assays the activity of compounds of the invention, human recombinant adrenergic α2A receptor expressed in insect Sf9 cells (Uhlen, S. et al, J. Pharmacol. Exp. Ther. 271:1558, 1994) in a modified Tris-HCl buffer (50 mM Tris-HCl, pH 7.4, 12.5 mM MgCl2, 2 mM EDTA) was used. Compounds of invention were incubated with 1 nM [^3H]MK-912 for 60 min at 25° C. MK912 was (2S-trans)-1,3,4,5′,6,6′,7,12b-octahydro-1′,3′-dimethyl-spiro[2H-benzofuro[2,3-a]quinolizine-2,4′(1′H)-pyrimidin]-2′(3′H)-one hydrochloride Non-specific binding was estimated in the presence of 10 μM WB-4101 (2-(2,6-Dimethoxyphenoxyethyl)aminomethyl-1,4-benzodioxane hydrochloride). Receptor proteins were filtered and washed, the filters were then counted to determine [^3H]MK-912 specifically bound. Compounds were screened at 1 μM or lower, using 1% DMSO as vehicle. Compounds of the invention were tested in this biochemical assay and percent inhibition of specific binding was determined. Biochemical assay results are presented as the percent inhibition of specific binding in Tables B1A-B1D.

[3] = molecular target: T2, human recombinant adrenergic α2B receptor (Homo sapiens, UniProt P18089); test: Adrenergic α2B radioligand binding assay ([3H]Rauwolscine); conditions: read-out: Percentage inhibition of ligand binding, Adrenergic α2B; for inhibition at 0.03 µM: 0.03 μM compound
T2 construct: expressed in transfected cells; host or cells: CHO-K1 cells
T2 sequence (P18089 1-450): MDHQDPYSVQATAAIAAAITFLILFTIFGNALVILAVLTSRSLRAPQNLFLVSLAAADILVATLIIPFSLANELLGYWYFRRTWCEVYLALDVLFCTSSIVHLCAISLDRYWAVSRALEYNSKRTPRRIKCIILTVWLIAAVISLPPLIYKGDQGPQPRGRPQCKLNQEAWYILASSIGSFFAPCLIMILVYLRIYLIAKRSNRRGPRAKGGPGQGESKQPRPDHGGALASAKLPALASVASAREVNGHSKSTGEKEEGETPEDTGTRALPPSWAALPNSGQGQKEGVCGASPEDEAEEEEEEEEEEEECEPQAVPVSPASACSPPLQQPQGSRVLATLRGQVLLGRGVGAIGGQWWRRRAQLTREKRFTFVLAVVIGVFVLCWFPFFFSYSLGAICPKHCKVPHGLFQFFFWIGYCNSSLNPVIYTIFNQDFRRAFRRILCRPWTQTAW
Procedure: To evaluate in radioligand binding assays the activity of compounds of the invention, human recombinant adrenergic α2B receptor expressed in Chinese hamster ovary (CHO) K1 cells (Uhlen, S. et al, Eur. J. Pharmacol. 343(1):93, 1998) in a modified Tris-HCl buffer (50 mM Tris-HCl, pH 7.4, 12.5 mM MgCl2, 1 mM EDTA, 0.2% BSA) was used. Compounds of the invention were incubated with 2.5 nM [3H]Rauwolscine for 60 min at 25° C. Non-specific binding was estimated in the presence of 10 μM Prazosin. Receptor proteins were filtered and washed, the filters were then counted to determine [3H]Rauwolscine specifically bound. Compounds were screened at 1 μM or lower, using 1% DMSO as vehicle. Compounds of the invention were tested in this biochemical assay and percent inhibition of specific binding was determined. Biochemical assay results are presented as the percent inhibition of specific binding in Tables B1A-B1D.

[4] = molecular target: T3, rat adrenergic α1B receptor obtained from Wistar Rat liver (Rattus norvegicus, UniProt P15823); test: Adrenergic α1B radioligand binding assay ([3H]Prazosin); conditions: 0.1 μM compound; read-out: Percentage inhibition of ligand binding, Adrenergic α1B
T3 construct: rat adrenergic α1B receptor obtained from Wistar Rat liver; from tissue; host or cells: Wistar rat liver
T3 sequence (P15823 1-515): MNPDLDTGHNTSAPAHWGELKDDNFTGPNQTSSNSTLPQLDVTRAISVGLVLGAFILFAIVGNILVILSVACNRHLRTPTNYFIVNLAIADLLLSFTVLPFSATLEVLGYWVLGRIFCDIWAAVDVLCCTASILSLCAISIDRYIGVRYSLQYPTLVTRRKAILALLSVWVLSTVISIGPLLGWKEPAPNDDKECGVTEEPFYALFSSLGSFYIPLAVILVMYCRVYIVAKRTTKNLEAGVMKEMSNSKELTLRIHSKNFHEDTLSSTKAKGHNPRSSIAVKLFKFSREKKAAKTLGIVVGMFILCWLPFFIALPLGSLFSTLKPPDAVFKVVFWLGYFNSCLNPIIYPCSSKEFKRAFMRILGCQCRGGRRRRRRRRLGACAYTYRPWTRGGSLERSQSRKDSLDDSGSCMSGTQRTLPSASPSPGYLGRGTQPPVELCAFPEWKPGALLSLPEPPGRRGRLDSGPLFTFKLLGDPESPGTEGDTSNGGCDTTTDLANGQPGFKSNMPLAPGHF
Procedure: To evaluate in radioligand binding assays the activity of compounds of the invention, rat adrenergic α1B receptor obtained from Wistar Rat liver (Garcia-S'ainz, J. et al, Biochem. Biophys. Res. Commun. 186:760, 1992; Michel, A. et al, Br. J. Pharmacol. 98:883, 1989) in a modified Tris-HCl buffer (50 mM Tris-HCl buffer, pH 7.4, 0.5 mM EDTA) was used. Compounds of the invention were incubated with 0.25 nM [^3H]Prazosin for 60 min at 25° C. Non-specific binding was estimated in the presence of 10 μM phentolamine. Receptor proteins were filtered and washed, the filters were then counted to determine [^3H]Prazosin specifically bound. Compounds were screened at 1 μM or lower, using 1% DMSO as vehicle. Compounds of the invention were tested in this biochemical assay and percent inhibition of specific binding was determined. Biochemical assay results are presented as the percent inhibition of specific binding in Tables B1A-B1D.

[5] = molecular target: T4, human recombinant adrenergic α1D receptor (Homo sapiens, UniProt P25100); test: Adrenergic α1D radioligand binding assay ([3H]Prazosin); conditions: 1 μM compound; read-out: Percentage inhibition of ligand binding, Adrenergic α1D
T4 construct: expressed in transfected cells; host or cells: HEK-293 cells
T4 sequence (P25100 1-572): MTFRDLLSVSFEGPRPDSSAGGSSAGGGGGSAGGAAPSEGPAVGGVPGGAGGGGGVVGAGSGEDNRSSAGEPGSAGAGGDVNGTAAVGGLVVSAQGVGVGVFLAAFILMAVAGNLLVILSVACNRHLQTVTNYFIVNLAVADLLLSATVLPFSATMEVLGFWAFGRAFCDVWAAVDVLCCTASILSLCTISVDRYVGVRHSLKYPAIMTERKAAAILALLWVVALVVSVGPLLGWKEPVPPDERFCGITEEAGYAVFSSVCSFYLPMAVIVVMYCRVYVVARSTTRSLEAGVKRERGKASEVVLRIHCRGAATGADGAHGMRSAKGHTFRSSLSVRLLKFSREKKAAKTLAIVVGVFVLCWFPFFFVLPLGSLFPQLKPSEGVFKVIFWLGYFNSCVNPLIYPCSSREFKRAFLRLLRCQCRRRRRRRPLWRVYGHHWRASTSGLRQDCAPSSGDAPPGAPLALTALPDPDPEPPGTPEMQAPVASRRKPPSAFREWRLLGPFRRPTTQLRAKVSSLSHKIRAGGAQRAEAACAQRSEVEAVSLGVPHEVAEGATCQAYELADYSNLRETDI
Procedure: To evaluate in radioligand binding assays the activity of compounds of the invention, human recombinant adrenergic α1D receptor expressed in human embryonic kidney (HEK-293) cells (Kenny, B. et al, Br. J. Pharmacol. 115(6):981, 1995) in a 50 mM Tris-HCl buffer, pH 7.4, was used. Compounds were incubated with 0.6 nM [3H]Prazosin for 60 min at 25° C. Non-specific binding was estimated in the presence of 10 μM phentolamine. Receptor proteins were filtered and washed, the filters were then counted to determine [3H]Prazosin specifically bound. Compounds were screened at 1 μM or lower, using 1% DMSO as vehicle. Biochemical assay results are presented as the percent inhibition of specific binding in Tables B1A-B1D.

CN1CCc2[nH]c3c(N(C)Cc4ccccc4)cccc3c2C1 [A1]
viability at 0.01 µM [1]: -1.1%

Cc1cc(CCc2ccc(C)nc2)c2[nH]c3c(c2c1)CN(C)CC3 [A2]
viability at 0.01 µM [1]: -4.41%

CN1CCc2[nH]c3c(NCc4ccccc4)cccc3c2C1 [A3]
viability at 0.01 µM [1]: 35.1%

Cc1cc(C#Cc2ccncc2)c2[nH]c3c(c2c1)CN(C)CC3 [A5]
viability at 0.01 µM [1]: 28.8%

Cc1cc(C#Cc2ccc(C)nc2)c2[nH]c3c(c2c1)CN(C)CC3 [A6]
viability at 0.01 µM [1]: 27.6%

Cc1cc(CC(O)c2ccncc2)c2[nH]c3c(c2c1)CN(C)CC3 (centres unmarked) [A43]
inhibition at 0.1 µM [2]: 7% | inhibition at 0.03 µM [3]: 26% | inhibition at 0.1 µM [4]: -1%

Cc1cc(CC(O)c2ccncc2)c2c(c1)c1c(n2C)CCN(C)C1 (centres unmarked) [A44]
inhibition at 0.1 µM [2]: -5% | inhibition at 0.03 µM [3]: 31% | inhibition at 0.1 µM [4]: -3%

Cc1cc2c3c(c1)c1c(n3CC(c3ccc(C)nc3)C2)CCN(C)C1 (centres unmarked) [B1]
inhibition at 1 µM [5]: 28% | inhibition at 1 µM ([2]; 1 μM compound): 15% | inhibition at 1 µM ([3]; 1 μM compound): 47%
